# In ChEMBL document CHEMBL1144852, “Optimization of a dihydropyrrolopyrazole series of transforming growth factor-beta type I receptor kinase domain inhibitors: discovery of an orally bioavailable transforming growth factor-beta receptor type I inhibitor as antitumor agent” (J Med Chem, 2008):
# Calls of active or inactive are those of the source. The calls are words filed in the database; no cut-off is given here.
# Assays:
# [1] = biological target: Dual specificity mitogen-activated protein kinase kinase 7 (Homo sapiens) (UniProt O14733); test: Inhibition of MKK7-beta at 20 uM
# [2] = biological target: Mitogen-activated protein kinase 9 (Homo sapiens) (UniProt P45984); test: Inhibition of JNK2-alpha-2 at 20 uM
# Caco-2 = test: Permeability from apical to basolateral side of human Caco-2 cell membrane; assay type: ADME, cell-based
# NIH3T3 = test: Antiproliferative activity against mouse NIH3T3 cells by [3H]thymidine assay; assay type: functional, cell-based
# [3] = Metabolic stability in rat microsomes; assay type: ADME, Microsome
# [4] = biological target: Mitogen-activated protein kinase 10 (Homo sapiens) (UniProt P53779); test: Inhibition of JNK3 at 20 uM
# MX1 = test: Effect on tumor growth delay in human MX1 cells xenografted in mouse administered 75 mg/kg, po twice a day after 7 days of inoculation for 20 days; assay type: functional, organism-based; parameters: dose 75 mg/kg
# [5] = biological target: Fibroblast growth factor receptor 3 (Homo sapiens) (UniProt P22607); test: Inhibition of FGFR3 at 20 uM
# [6] = biological target: Mitogen-activated protein kinase 14 (Homo sapiens) (UniProt Q16539); test: Inhibition of Sapk2-alpha at 20 uM
# [7] = Inhibition of JNK1-alpha at 20 uM
# [8] = biological target: MAP kinase-activated protein kinase 2 (Homo sapiens) (UniProt P49137); test: Inhibition of MAPKAPK2 at 20 uM
# [9] = biological target: Vascular endothelial growth factor receptor 2 (Homo sapiens) (UniProt P35968); test: Inhibition of KDR at 20 uM
# [10] = biological target: 5'-AMP-activated protein kinase subunit beta-1 (Homo sapiens) (UniProt Q9Y478); test: Inhibition of AMPK at 20 uM
# [11] = biological target: Protein kinase C alpha type (Homo sapiens) (UniProt P17252); test: Inhibition of PKCalpha at 20 uM
# [12] = biological target: Proto-oncogene tyrosine-protein kinase Src (Homo sapiens) (UniProt P12931); test: Inhibition of cSRC at 20 uM
# [13] = biological target: Tyrosine-protein kinase Lck (Homo sapiens) (UniProt P06239); test: Inhibition of Lck at 20 uM
# [14] = biological target: Dual specificity mitogen-activated protein kinase kinase 6 (Homo sapiens) (UniProt P52564); test: Inhibition of MKK6 at 20 uM
# [15] = biological target: Serine/threonine-protein kinase Chk1 (Homo sapiens) (UniProt O14757); test: Inhibition of Chk1 at 20 uM
# [16] = biological target: Glycogen synthase kinase-3 beta (Homo sapiens) (UniProt P49841); test: Inhibition of GSK3-beta at 20 uM
# Mus musculus [17] = test: Inhibition of TGFbeta type receptor 1 in orally dosed human Calu6 cells xenografted mouse by IVTI […] assay; assay type: functional, organism-based; settings: Calu-6
# [18] = biological target: Dual specificity mitogen-activated protein kinase kinase 4 (Homo sapiens) (UniProt P45985); test: Inhibition of MKK4 at 20 uM
# [19] = Inhibition of PKA at 20 uM
# [20] = biological target: Serine/threonine-protein kinase N2 (Homo sapiens) (UniProt Q16513); test: Inhibition of PRK2 at 20 uM
# [21] = biological target: RAC-alpha serine/threonine-protein kinase (Homo sapiens) (UniProt P31749); test: Inhibition of PKBalpha at 20 uM
# [22] = biological target: Mitogen-activated protein kinase 1 (Homo sapiens) (UniProt P28482); test: Inhibition of MAPK1 at 20 uM
# [23] = Oral bioavailability in rat at 10 mg/kg after 24 hrs; assay type: ADME, organism-based; settings: in vivo
# [24] = biological target: Dual specificity mitogen-activated protein kinase kinase 1 (Homo sapiens) (UniProt Q02750); test: Inhibition of Mek1 at 20 uM
# [25] = biological target: Protein kinase C delta type (Homo sapiens) (UniProt Q05655); test: Inhibition of PKCdelta at 20 uM
# [26] = biological target: Protein kinase C beta type (Homo sapiens) (UniProt P05771); test: Inhibition of PKC-beta-2 at 20 uM
# [27] = biological target: Ribosomal protein S6 kinase beta-1 (Homo sapiens) (UniProt P23443); test: Inhibition of p70S6K at 20 uM
# Liver microsomes = test: Metabolic stability in human liver microsomes; assay type: ADME, Microsome
# [28] = biological target: Mitogen-activated protein kinase 13 (Homo sapiens) (UniProt O15264); test: Inhibition of Sapk4 at 20 uM
# [29] = biological target: RAF proto-oncogene serine/threonine-protein kinase (Homo sapiens) (UniProt P04049); test: Inhibition of cRaf at 20 uM
# [30] = Inhibition of CK2 at 20 uM
# [31] = biological target: Cyclin-dependent kinase 2 (Homo sapiens) (UniProt P24941); test: Inhibition of CDK2 at 20 uM
# Mus musculus [32] = test: Inhibition of TGFbeta type receptor 1 in human Calu6 cells xenografted mouse at 75 mg/kg, po after 4 hrs by IVTI pharmacodynamic assay; assay type: functional; settings: Calu-6, 4 h
# [33] = biological target: Rho-associated protein kinase 2 (Homo sapiens) (UniProt O75116); test: Inhibition of Rock2 at 20 uM
# [34] = biological target: Ribosomal protein S6 kinase alpha-5 (Homo sapiens) (UniProt O75582); test: Inhibition of MSK1 at 20 uM
# [35] = Inhibition of CaMK2 at 20 uM
# [36] = biological target: Serine/threonine-protein kinase Chk2 (Homo sapiens) (UniProt O96017); test: Inhibition of Chk2 at 20 uM
# [37] = AUC in rat at 10 mg/kg, po after 24 hrs; assay type: ADME, organism-based; parameters: time < 24 hr, dose 10 mg/kg, route oral; settings: plasma
# [38] = biological target: Tyrosine-protein kinase Blk (Homo sapiens) (UniProt P51451); test: Inhibition of Blk at 20 uM
# [39] = biological target: Tyrosine-protein kinase ZAP-70 (Homo sapiens) (UniProt P43403); test: Inhibition of ZAP70 at 20 uM
# [40] = biological target: Mitogen-activated protein kinase 11 (Homo sapiens) (UniProt Q15759); test: Inhibition of Sapk2-beta at 20 uM
# [41] = biological target: Serine/threonine-protein kinase Sgk1 (Homo sapiens) (UniProt O00141); test: Inhibition of SGK at 20 uM
# [42] = biological target: MAP kinase-activated protein kinase 5 (Homo sapiens) (UniProt Q8IW41); test: Inhibition of PRAK at 20 uM
# Mus musculus [43] = test: Inhibition of TGFbeta type receptor 1 in human Calu6 cells xenografted mouse at 50 mg/kg, po by single point IVTI assay; assay type: functional, Calu-6; parameters: scale not given: the % may be the effect or the level left
# [44] = biological target: Cyclin-dependent kinase 1 (Homo sapiens) (UniProt P06493); test: Inhibition of CDK1 at 20 uM
# [45] = biological target: Mitogen-activated protein kinase 12 (Homo sapiens) (UniProt P53778); test: Inhibition of Sapk3 at 20 uM
# [46] = biological target: Tyrosine-protein kinase Fyn (Homo sapiens) (UniProt P06241); test: Inhibition of Fyn at 20 uM
# Mitogen-activated protein kinase 13 (Homo sapiens), sequence (O15264 whole entry): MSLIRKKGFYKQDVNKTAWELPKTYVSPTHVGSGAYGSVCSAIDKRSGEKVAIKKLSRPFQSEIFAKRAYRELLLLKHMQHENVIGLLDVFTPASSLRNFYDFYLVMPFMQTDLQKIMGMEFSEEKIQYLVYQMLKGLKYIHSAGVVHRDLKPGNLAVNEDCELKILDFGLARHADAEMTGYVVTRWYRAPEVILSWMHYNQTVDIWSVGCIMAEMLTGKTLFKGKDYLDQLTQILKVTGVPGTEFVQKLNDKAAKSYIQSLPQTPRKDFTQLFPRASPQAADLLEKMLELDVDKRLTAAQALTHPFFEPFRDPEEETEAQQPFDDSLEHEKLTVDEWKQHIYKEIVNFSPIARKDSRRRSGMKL
# 5'-AMP-activated protein kinase subunit beta-1 (Homo sapiens), sequence (Q9Y478 whole entry): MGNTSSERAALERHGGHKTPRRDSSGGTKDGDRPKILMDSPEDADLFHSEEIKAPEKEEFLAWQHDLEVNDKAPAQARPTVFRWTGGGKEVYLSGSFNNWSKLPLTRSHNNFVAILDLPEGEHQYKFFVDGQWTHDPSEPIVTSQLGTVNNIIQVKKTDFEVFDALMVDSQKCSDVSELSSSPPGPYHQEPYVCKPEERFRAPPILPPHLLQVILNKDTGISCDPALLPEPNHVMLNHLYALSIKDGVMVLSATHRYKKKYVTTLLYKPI
# Tyrosine-protein kinase ZAP-70 (Homo sapiens), sequence (P43403 whole entry): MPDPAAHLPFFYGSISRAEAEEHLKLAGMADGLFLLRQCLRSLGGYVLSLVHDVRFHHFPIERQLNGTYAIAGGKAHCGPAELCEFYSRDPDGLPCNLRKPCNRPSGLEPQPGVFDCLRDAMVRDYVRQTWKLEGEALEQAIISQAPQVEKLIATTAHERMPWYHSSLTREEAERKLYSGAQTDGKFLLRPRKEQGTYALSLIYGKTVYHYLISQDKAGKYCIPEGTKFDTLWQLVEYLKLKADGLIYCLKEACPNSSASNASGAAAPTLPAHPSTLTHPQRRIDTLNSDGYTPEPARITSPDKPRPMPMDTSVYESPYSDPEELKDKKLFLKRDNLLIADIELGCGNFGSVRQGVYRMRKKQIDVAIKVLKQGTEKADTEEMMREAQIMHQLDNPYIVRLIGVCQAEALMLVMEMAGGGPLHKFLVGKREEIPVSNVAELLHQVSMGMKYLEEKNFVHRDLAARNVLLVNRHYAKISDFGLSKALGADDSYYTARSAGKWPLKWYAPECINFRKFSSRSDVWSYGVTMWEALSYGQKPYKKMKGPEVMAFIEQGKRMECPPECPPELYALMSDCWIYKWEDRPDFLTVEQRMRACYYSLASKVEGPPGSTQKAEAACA
# MAP kinase-activated protein kinase 5 (Homo sapiens), sequence (Q8IW41 whole entry): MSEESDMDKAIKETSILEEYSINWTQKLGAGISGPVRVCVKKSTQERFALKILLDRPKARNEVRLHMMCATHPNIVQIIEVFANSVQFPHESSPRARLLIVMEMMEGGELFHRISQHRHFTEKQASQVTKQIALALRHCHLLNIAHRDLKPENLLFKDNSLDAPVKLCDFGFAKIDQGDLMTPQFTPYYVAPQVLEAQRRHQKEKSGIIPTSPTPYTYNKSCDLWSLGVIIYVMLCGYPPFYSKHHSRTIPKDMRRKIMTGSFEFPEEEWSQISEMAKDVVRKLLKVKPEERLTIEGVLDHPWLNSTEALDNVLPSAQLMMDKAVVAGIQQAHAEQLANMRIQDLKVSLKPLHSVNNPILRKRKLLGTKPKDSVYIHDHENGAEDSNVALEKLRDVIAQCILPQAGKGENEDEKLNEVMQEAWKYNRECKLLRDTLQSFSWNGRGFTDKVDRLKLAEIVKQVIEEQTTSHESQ
# Serine/threonine-protein kinase N2 (Homo sapiens), sequence (Q16513 whole entry, looked up): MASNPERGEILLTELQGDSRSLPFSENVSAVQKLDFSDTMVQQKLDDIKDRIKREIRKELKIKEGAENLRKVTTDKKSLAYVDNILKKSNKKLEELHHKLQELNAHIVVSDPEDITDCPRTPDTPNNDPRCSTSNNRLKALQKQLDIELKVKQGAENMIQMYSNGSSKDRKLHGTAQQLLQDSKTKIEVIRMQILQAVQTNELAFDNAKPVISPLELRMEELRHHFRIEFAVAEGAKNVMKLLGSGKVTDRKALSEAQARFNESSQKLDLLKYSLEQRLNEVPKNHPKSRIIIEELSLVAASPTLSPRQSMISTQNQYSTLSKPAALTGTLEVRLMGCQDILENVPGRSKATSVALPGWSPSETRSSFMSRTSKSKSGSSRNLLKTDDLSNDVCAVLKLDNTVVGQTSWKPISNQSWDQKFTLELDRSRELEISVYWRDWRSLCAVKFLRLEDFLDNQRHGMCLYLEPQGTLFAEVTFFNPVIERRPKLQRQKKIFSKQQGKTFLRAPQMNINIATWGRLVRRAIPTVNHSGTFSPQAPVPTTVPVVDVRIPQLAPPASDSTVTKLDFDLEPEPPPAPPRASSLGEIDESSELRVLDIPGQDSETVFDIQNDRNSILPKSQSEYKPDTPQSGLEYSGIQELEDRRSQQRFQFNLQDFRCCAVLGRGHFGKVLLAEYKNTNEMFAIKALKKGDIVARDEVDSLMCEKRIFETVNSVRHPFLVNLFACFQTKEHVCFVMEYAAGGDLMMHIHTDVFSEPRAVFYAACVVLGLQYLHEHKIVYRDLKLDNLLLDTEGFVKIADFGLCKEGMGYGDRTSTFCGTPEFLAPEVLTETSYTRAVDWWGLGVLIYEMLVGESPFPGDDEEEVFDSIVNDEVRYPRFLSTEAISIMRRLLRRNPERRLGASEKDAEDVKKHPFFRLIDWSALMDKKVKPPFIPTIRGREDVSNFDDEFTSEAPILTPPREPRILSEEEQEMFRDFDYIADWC
# Tyrosine-protein kinase Lck (Homo sapiens), sequence (P06239 2-509 limits assumed): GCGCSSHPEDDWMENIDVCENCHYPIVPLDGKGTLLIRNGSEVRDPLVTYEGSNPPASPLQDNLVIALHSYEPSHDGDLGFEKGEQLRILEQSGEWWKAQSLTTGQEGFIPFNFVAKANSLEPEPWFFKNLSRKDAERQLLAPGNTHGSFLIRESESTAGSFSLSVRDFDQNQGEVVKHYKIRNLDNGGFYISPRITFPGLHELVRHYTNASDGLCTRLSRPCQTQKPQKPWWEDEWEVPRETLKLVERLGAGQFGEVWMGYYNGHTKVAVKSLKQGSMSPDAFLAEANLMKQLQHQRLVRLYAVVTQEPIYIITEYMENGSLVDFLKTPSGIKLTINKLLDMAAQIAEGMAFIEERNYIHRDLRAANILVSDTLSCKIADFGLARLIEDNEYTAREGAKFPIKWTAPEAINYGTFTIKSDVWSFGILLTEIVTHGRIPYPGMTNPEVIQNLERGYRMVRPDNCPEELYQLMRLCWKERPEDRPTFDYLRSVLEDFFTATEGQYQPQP
# Fibroblast growth factor receptor 3 (Homo sapiens), sequence (P22607 23-806 limits assumed): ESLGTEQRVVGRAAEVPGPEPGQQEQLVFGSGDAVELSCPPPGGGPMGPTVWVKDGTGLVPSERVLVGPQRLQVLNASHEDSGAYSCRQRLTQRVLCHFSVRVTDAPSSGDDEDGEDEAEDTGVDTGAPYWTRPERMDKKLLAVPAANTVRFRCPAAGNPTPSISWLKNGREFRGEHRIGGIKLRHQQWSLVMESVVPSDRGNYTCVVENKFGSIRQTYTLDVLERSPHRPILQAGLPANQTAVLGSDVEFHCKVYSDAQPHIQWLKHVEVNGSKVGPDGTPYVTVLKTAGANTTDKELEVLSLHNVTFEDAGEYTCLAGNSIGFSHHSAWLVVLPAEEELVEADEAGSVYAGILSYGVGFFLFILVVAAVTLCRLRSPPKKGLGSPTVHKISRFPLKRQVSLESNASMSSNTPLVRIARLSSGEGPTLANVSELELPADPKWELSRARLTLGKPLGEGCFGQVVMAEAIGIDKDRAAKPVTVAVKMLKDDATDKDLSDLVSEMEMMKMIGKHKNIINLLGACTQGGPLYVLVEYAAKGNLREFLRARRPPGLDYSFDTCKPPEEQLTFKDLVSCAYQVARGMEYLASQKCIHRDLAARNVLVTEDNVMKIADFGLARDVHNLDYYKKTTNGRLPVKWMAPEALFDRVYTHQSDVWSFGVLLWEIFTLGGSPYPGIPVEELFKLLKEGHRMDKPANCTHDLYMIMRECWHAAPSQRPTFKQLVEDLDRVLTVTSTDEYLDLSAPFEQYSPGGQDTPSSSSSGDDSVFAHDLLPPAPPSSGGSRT
# Serine/threonine-protein kinase Chk2 (Homo sapiens), sequence (O96017 whole entry): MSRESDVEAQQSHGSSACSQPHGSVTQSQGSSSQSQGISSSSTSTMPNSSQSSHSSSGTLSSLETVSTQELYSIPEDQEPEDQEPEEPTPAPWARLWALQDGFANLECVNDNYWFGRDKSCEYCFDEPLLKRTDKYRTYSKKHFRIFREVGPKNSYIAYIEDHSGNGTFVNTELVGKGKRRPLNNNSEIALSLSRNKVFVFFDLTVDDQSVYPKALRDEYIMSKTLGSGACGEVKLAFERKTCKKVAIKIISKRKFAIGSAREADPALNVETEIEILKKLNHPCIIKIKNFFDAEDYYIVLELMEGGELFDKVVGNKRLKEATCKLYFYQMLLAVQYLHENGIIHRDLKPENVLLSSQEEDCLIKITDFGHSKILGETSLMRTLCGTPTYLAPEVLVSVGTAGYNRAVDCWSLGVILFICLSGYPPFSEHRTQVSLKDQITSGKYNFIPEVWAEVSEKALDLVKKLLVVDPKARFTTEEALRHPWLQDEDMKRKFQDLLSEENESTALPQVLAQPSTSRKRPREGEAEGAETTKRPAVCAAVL
# Mitogen-activated protein kinase 11 (Homo sapiens), sequence (Q15759 whole entry): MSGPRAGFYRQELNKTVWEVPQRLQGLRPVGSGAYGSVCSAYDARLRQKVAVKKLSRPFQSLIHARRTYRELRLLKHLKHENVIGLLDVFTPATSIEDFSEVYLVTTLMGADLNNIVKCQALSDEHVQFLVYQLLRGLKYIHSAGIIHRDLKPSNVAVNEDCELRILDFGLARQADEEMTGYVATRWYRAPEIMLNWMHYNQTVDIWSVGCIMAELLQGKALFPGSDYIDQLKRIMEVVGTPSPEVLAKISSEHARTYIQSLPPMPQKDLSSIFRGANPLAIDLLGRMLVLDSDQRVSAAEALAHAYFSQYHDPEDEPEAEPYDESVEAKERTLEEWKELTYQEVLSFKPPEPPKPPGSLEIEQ
smiles,measurement,setting,value
c1ccc(-c2nn3c(c2-c2ccnc4cc(OCCN5CCOCC5)ccc24)CCC3)nc1,inhibition,[1],< 50%
same,inhibition,[2],< 50%
same,permeability,Caco-2,28%
same,IC50,NIH3T3,210 nM
same,Stability,[3],58%
same,inhibition,[4],68%
same,Activity,MX1,Active
same,inhibition,[5],< 50%
same,inhibition,[6],89%
same,inhibition,[7],< 50%
same,inhibition,[8],< 50%
same,inhibition,[9],< 50%
same,inhibition,[10],< 50%
same,inhibition,[11],< 50%
same,inhibition,[12],< 50%
same,inhibition,[13],69%
same,inhibition,[14],80%
same,inhibition,[15],< 50%
same,inhibition,[16],< 50%
same,EC50,Mus musculus [17],236 nM
same,inhibition,[18],< 50%
same,inhibition,[19],< 50%
same,inhibition,[20],< 50%
same,inhibition,[21],< 50%
same,inhibition,[22],31%
same,bioavailability,[23],21%
same,inhibition,[24],< 50%
same,inhibition,[25],< 50%
same,inhibition,[26],< 50%
same,inhibition,[27],< 50%
same,Stability,Liver microsomes,27%
same,inhibition,[28],< 50%
same,inhibition,[29],< 50%
same,inhibition,[30],< 50%
same,inhibition,[31],< 50%
same,inhibition in vivo at 75 mg/kg,Mus musculus [32],48%
same,inhibition,[33],< 50%
same,inhibition,[34],< 50%
same,inhibition,[35],< 50%
same,inhibition,[36],< 50%
same,AUC at 24 h,[37],1000 ng·h/mL
same,inhibition,[38],< 50%
same,inhibition,[39],< 50%
same,inhibition,[40],47%
same,inhibition,[41],< 50%
same,inhibition,[42],< 50%
same,Activity,Mus musculus [43],56%
same,inhibition,[44],< 50%
same,inhibition,[45],< 50%
same,inhibition,[46],58%
